Assay results as given in ChEMBL document CHEMBL5724914, “Linking interpersonal differences in gut microbiota composition and drug biotransformation activity” (2024).

How the values were obtained:
[1] = (§1) The drug is tested on Z-029 corresponding to rat gut metagenome with ENA study accession number: PRJEB37062 and ENA sample accession number: ERS12561828 for biotransformation under anaerobic condition. The drug concentrations were measured over 9 timepoints collected between 0 and 24 hours of incubation by liquid-chromatography-coupled mass spectrometry (LC–MS); details: 2 µM
[2] = as §1, with “Z-019” for “Z-029”, “ERS12561818” for “ERS12561828”; details: 2 µM
[3] = as §1, with “on Z-002” for “on Z-029”, “to rabbit” for “to rat”, “number: ERS12561802” for “number: ERS12561828”; details: 2 µM
[4] = as §1, with “on WLS-038” for “on Z-029”, “to human” for “to rat”, “number: ERS12561745” for “number: ERS12561828”; details: 2 µM
[5] = human gut metagenome, 24 h, 2 µM
[6] = human gut metagenome, 24 h, 2 µM; remark: listed apart in the source
[7] = human gut metagenome, 24 h, 2 µM; remark: listed apart in the source
[8] = human gut metagenome, 24 h, 2 µM; remark: listed apart in the source
[9] = human gut metagenome, 24 h, 2 µM; remark: listed apart in the source
Also: call rule not given here.

Row | SMILES | Bacterial Biotransformation [1] | Bacterial Biotransformation [2] | Bacterial Biotransformation [3] | Bacterial Biotransformation [4] | Bacterial Biotransformation [5] | Bacterial Biotransformation [6] | Bacterial Biotransformation [7] | Bacterial Biotransformation [8] | Bacterial Biotransformation [9]
1 | COc1ccccc1OCC(O)COC(N)=O (stereo unspecified) [METHOCARBAMOL] | Compound NOT metabolized | Compound NOT metabolized | Compound NOT metabolized | Compound NOT metabolized | Compound NOT metabolized | Compound NOT metabolized | Compound NOT metabolized | Compound NOT metabolized | Compound NOT metabolized
2 | CCOC(=O)[C@H](CCc1ccccc1)N[C@@H](C)C(=O)N1[C@H](C(=O)O)C[C@H]2CCCC[C@@H]21 [TRANDOLAPRIL] | Compound NOT metabolized | Compound NOT metabolized | Compound metabolized | Compound metabolized | Compound NOT metabolized | Compound NOT metabolized | Compound metabolized | Compound metabolized | Compound metabolized
3 | Cc1cc2c(cc1S(N)(=O)=O)S(=O)(=O)CCC2 | Compound NOT metabolized | Compound NOT metabolized | Compound NOT metabolized | Compound NOT metabolized | Compound NOT metabolized | Compound NOT metabolized | Compound NOT metabolized | Compound NOT metabolized | Compound NOT metabolized
4 | O=C(Nc1ccccc1)OCC(CN1CCCCC1)OC(=O)Nc1ccccc1 (stereo unspecified) [DIPERODON] | Compound NOT metabolized | Compound NOT metabolized | Compound NOT metabolized | Compound NOT metabolized | Compound NOT metabolized | Compound NOT metabolized | Compound metabolized | Compound metabolized | Compound NOT metabolized
5 | CN1CCC(=C2c3ccccc3CCc3cccnc32)CC1.O=C(O)/C=C\C(=O)O.O=C(O)/C=C\C(=O)O [AZATADINE MALEATE] | Compound NOT metabolized | Compound NOT metabolized | Compound NOT metabolized | Compound NOT metabolized | Compound NOT metabolized | Compound NOT metabolized | Compound NOT metabolized | Compound NOT metabolized | Compound NOT metabolized
6 | CCCc1nc(C(C)(C)O)c(C(=O)OCc2oc(=O)oc2C)n1Cc1ccc(-c2ccccc2-c2nnn[nH]2)cc1 [OLMESARTAN MEDOXOMIL] | Compound NOT metabolized | Compound NOT metabolized | Compound metabolized | Compound metabolized | Compound NOT metabolized | Compound metabolized | Compound metabolized | Compound metabolized | Compound metabolized
7 | CCCC1O[C@@H]2C[C@H]3[C@@H]4CCC5=CC(=O)C=C[C@]5(C)[C@H]4[C@@H](O)C[C@]3(C)[C@]2(C(=O)CO)O1 (stereo partly specified) [BUDESONIDE] | Compound NOT metabolized | Compound NOT metabolized | Compound metabolized | Compound metabolized | Compound metabolized | Compound metabolized | Compound metabolized | Compound metabolized | Compound metabolized
8 | N#Cc1ccc(C(c2ccc(C#N)cc2)n2cncn2)cc1 [LETROZOLE] | Compound metabolized | Compound NOT metabolized | Compound metabolized | Compound NOT metabolized | Compound NOT metabolized | Compound NOT metabolized | Compound NOT metabolized | Compound NOT metabolized | Compound NOT metabolized
9 | CC(C)c1nc(CN(C)C(=O)N[C@H](C(=O)N[C@@H](Cc2ccccc2)C[C@H](O)[C@H](Cc2ccccc2)NC(=O)OCc2cncs2)C(C)C)cs1 [RITONAVIR] | Compound NOT metabolized | Compound NOT metabolized | Compound metabolized | Compound metabolized | Compound NOT metabolized | Compound NOT metabolized | Compound metabolized | Compound metabolized | Compound metabolized
10 | CC(=O)CC(c1ccccc1)c1c(O)c2ccccc2oc1=O (stereo unspecified) [WARFARIN] | Compound NOT metabolized | Compound NOT metabolized | Compound metabolized | Compound NOT metabolized | Compound metabolized | Compound metabolized | Compound metabolized | Compound metabolized | Compound metabolized
11 | COc1ccc2c3c1O[C@H]1C[C@@H](O)C=C[C@@]31CCN(C)C2 [GALANTAMINE] | Compound NOT metabolized | Compound NOT metabolized | Compound metabolized | Compound NOT metabolized | Compound NOT metabolized | Compound metabolized | Compound metabolized | Compound NOT metabolized | Compound NOT metabolized
12 | Nc1c2c(nc3ccccc13)CCCC2 [TACRINE] | Compound NOT metabolized | Compound NOT metabolized | Compound metabolized | Compound NOT metabolized | Compound NOT metabolized | Compound NOT metabolized | Compound metabolized | Compound metabolized | Compound NOT metabolized
13 | O=P(O)(O)O.c1ccc(CN(CC2=NCCN2)c2ccccc2)cc1 [ANTAZOLINE PHOSPHATE] | Compound NOT metabolized | Compound NOT metabolized | Compound metabolized | Compound NOT metabolized | Compound NOT metabolized | Compound NOT metabolized | Compound metabolized | Compound metabolized | Compound metabolized
14 | CCN(CC)CCNC(=O)c1cc(Cl)c(N)cc1OC [METOCLOPRAMIDE] | Compound NOT metabolized | Compound NOT metabolized | Compound NOT metabolized | Compound NOT metabolized | Compound NOT metabolized | Compound NOT metabolized | Compound NOT metabolized | Compound NOT metabolized | Compound NOT metabolized
15 | Nc1nc2ccc(OC(F)(F)F)cc2s1 [RILUZOLE] | Compound metabolized | Compound NOT metabolized | Compound metabolized | Compound metabolized | Compound NOT metabolized | Compound NOT metabolized | Compound metabolized | Compound metabolized | Compound metabolized
16 | CCCCC(=O)N(Cc1ccc(-c2ccccc2-c2nnn[nH]2)cc1)[C@H](C(=O)O)C(C)C | Compound NOT metabolized | Compound NOT metabolized | Compound NOT metabolized | Compound metabolized | Compound metabolized | Compound metabolized | Compound metabolized | Compound metabolized | Compound NOT metabolized
17 | Cc1ccc(-c2nc3ccc(C)cn3c2CC(=O)N(C)C)cc1 [ZOLPIDEM] | Compound NOT metabolized | Compound NOT metabolized | Compound metabolized | Compound NOT metabolized | Compound NOT metabolized | Compound metabolized | Compound NOT metabolized | Compound metabolized | Compound metabolized
18 | Fc1ccc([C@@H]2CCNC[C@H]2COc2ccc3c(c2)OCO3)cc1 [PAROXETINE] | Compound NOT metabolized | Compound NOT metabolized | Compound NOT metabolized | Compound metabolized | Compound NOT metabolized | Compound metabolized | Compound metabolized | Compound metabolized | Compound NOT metabolized
19 | O=C(NCc1ccccc1)OCCO [BURAMATE] | Compound NOT metabolized | Compound NOT metabolized | Compound NOT metabolized | Compound NOT metabolized | Compound NOT metabolized | Compound NOT metabolized | Compound NOT metabolized | Compound NOT metabolized | Compound NOT metabolized
